pIC50: −log10 of the molar value. Read-outs that look alike come from different tables or passages of the source.
Tests used:
[1] = target: T1, human cloned 5-HT2A receptor, expressed in L929 cells (Homo sapiens, UniProt P28223); assay: In vitro radioligand binding affinity for 5-HT2A receptor ([125I]R91150); conditions: for IC50: human cloned receptor in L929 cells, [125I]R91150, read-out: 5-HT2A pIC50 (converted)
T1 construct: expressed in transfected cells; host or cells: L929 cells
Procedure: (§1) The interaction of the compounds of Formula (I) with 5-HT2A and 5-HT2C receptors was assessed in in vitro radioligand binding experiments. In general, a low concentration of a radioligand with a high binding affinity for the receptor is incubated with a sample of a tissue preparation enriched in a particular receptor (1 to 5 mg tissue) in a buffered medium (0.2 to 5 ml). During the incubation, the radioligands bind to the receptor. When equilibrium of binding is reached, the receptor bound radioactivity is separated from the non-bound radioactivity, and the receptor bound activity is counted. The interaction of the test compounds with the receptors is assessed in competition binding experiments. Various concentrations of the test compound are added to the incubation mixture containing the tissue preparation and the radioligand. Binding of the radioligand will be inhibited by the test compound in proportion to its binding affinity and its concentration. The affinities of the compounds for the 5-HT2 receptors were measured by means of radioligand binding studies conducted with: (a) human cloned 5-HT2A receptor, expressed in L929 cells using [^125I]R91150 as radioligand and (b) human cloned 5-HT2C receptor, expressed in CHO cells using [^3H]mesulergine as radioligand.
(§2) The results are given in Table 3 below in terms of pIC50 values for the respective compounds.

[2] = target: T2, human cloned 5-HT2C receptor, expressed in CHO cells (Homo sapiens, UniProt P28335); assay: In vitro radioligand binding affinity for 5-HT2C receptor ([3H]mesulergine); conditions: for IC50: human cloned receptor in CHO cells, [3H]mesulergine, read-out: 5-HT2C pIC50 (converted)
T2 construct: expressed in transfected cells; host or cells: CHO cells
T2 sequence (P28335 33-458): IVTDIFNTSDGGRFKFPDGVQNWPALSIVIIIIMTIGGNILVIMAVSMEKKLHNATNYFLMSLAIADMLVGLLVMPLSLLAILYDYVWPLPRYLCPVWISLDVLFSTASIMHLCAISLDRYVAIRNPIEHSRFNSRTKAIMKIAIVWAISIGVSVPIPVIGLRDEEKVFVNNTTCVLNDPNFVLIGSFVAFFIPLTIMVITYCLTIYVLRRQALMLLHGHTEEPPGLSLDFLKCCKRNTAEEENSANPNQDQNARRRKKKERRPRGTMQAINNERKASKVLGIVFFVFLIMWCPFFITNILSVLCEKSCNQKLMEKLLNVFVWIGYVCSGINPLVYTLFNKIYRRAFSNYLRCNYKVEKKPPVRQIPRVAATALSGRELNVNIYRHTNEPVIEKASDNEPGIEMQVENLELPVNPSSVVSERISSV
Procedure: as §1, §2

[3] = target: T3, human Dopamine D2L receptor (Homo sapiens, UniProt P14416); assay: In vitro binding affinity for human D2L receptor ([3H]Spiperone)
T3 construct: expressed in transfected cells; host or cells: CHO cells (membranes)
Procedure: Frozen membranes of human Dopamine D2L receptor-transfected CHO cells were thawed, briefly homogenized using an Ultra-Turrax T25 homogenizer and diluted in Tris-HCl assay buffer containing NaCl, CaCl2, MgCl2, KCl ([…] respectively, adjusted to pH 7.7 with HCl) to an appropriate protein concentration optimized for specific and non-specific binding. Radioligand [^3H]Spiperone (NEN, specific activity ˜70 Ci/mmol) was diluted in assay buffer at a concentration of 2 nmol/L. Prepared radioligand (50 μl), along with 50 μl of either the 10% DMSO control, Butaclamol (10^−6 mol/l final concentration), or compound of interest, was then incubated (30 min, 37° C.) with 400 μl of the prepared membrane solution. Membrane-bound activity was filtered through a Packard Filtermate harvester onto GF/B Unifilter plates and washed with ice-cold Tris-HCl buffer (50 mM; pH 7.7; 6×0.5 ml). Filters were allowed to dry before adding scintillation fluid and counting in a Topcount scintillation counter. Percentage specific bound and competition binding curves were calculated using S-Plus software (Insightful).
as §2
The values in the Table are pIC50 values and were determined in accordance with the procedure given above for determining D2 affinity.

[4] = human D2L-transfected CHO cell membranes, [3H]Spiperone, read-out: D2L pIC50 (converted)
[5] = Table 4, comparative data with prior art analogue

T1 sequence (P28223 whole entry): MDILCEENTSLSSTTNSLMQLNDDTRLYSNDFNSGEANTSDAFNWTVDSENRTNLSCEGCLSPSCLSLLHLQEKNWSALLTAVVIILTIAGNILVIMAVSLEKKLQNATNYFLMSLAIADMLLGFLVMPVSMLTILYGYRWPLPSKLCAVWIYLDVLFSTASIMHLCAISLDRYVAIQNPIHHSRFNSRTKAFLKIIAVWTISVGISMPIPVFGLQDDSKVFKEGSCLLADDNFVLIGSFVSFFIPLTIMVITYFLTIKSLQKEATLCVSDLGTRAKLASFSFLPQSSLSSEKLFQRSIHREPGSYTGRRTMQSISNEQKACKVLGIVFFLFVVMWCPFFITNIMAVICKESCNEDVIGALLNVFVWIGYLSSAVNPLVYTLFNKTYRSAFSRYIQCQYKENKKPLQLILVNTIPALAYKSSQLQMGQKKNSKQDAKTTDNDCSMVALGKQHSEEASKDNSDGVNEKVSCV
T3 sequence (P14416 whole entry): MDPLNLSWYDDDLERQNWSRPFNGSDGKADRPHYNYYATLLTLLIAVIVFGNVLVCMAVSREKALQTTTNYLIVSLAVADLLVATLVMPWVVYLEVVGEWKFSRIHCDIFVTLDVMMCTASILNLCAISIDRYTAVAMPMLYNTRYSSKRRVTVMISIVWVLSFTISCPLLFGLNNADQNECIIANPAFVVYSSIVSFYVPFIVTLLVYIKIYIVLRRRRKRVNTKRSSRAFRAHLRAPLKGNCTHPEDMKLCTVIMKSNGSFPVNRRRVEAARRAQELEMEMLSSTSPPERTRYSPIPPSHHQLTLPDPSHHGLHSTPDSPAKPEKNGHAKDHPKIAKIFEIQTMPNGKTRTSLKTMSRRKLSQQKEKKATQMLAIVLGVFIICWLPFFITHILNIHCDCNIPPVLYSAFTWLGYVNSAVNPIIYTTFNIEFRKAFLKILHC

Row | IC50 [1] [nM] | IC50 [2] [nM] | IC50 [3, 4] [nM] | h-D2L pIC50 [3, 5] | IC50 ([3]; Table 4, comparative data with prior art analogue, read-out: h-D2L pIC50 (converted)) [nM] | Compound | pIC50 [1] | pIC50 [2] | pIC50 [3]
1 | 8.51 | 4.37 | 40.7 | – | – | CC1CCCN1C[C@H]1C[C@@H]2c3ccccc3Cc3ccc(F)cc3[C@H]2O1 (mixture of isomers) [Compound 16] | – | – | –
2 | 4.68 | 5.25 | 24 | – | – | Fc1ccc2c(c1)C1OC(CN3CCCC3)CC1c1ccccc1C2 (stereo not drawn) [Compound 4] | – | – | –
3 | 14.5 | 19.1 | 7.41 | – | – | CC(=O)OCCN1CCN(C[C@H]2C[C@@H]3c4ccccc4Cc4ccc(F)cc4[C@H]3O2)CC1 [Compound 5] | – | – | –
4 | 9.77 | 3.09 | 16.2 | – | – | Fc1ccc2c(c1)[C@H]1O[C@@H](CN3CCCCCC3)C[C@@H]1c1ccccc1C2 [Compound 10] | – | – | –
5 | 3.89 | 1 | 1.35 | – | – | CC1CCN(C[C@H]2C[C@@H]3c4ccccc4Cc4ccc(F)cc4[C@H]3O2)CC1 [Compound 12] | – | – | –
6 | 1.91 | 1 | 5.89 | – | – | Fc1ccc2c(c1)C1OC(CN3CCCCC3)CC1c1ccccc1C2 (stereo not drawn) [Compound 17] | – | – | –
7 | 4.27 | 9.55 | 33.1 | – | – | CCOC(=O)N1CCN(C[C@H]2C[C@@H]3c4ccccc4Cc4ccc(F)cc4[C@H]3O2)CC1 [Compound 20] | – | – | –
8 | 3.8 | 39.8 | 34.7 | – | – | CC(C)C(=O)N1CCN(C[C@H]2C[C@@H]3c4ccccc4Cc4ccc(F)cc4[C@H]3O2)CC1 [Compound 22] | – | – | –
9 | 9.55 | 20.4 | 4.07 | – | – | OC(CN1CCN(C[C@H]2C[C@@H]3c4ccccc4Cc4ccc(F)cc4[C@H]3O2)CC1)c1ccccc1 (stereo partly drawn) [Compound 27] | – | – | –
10 | 4.79 | 10.7 | 4.57 | 8.34 | – | OC(Cc1ccccc1)CN1CCN(CC2CC3c4ccccc4Cc4ccc(F)cc4C3O2)CC1 (stereo not drawn) [Compound 28] | – | – | –
11 | 10 | 23.4 | 6.03 | 8.22 | – | CCCCC(O)CN1CCN(CC2CC3c4ccccc4Cc4ccc(F)cc4C3O2)CC1 (stereo not drawn) [Compound 29] | – | – | –
12 | 4.68 | 13.8 | 14.1 | – | – | COC(=O)N1CCN(C[C@H]2C[C@@H]3c4ccccc4Cc4ccc(F)cc4[C@H]3O2)CC1 [Compound 31] | – | – | –
13 | 5.13 | 32.4 | 22.9 | – | – | CC(C)OC(=O)N1CCN(C[C@H]2C[C@@H]3c4ccccc4Cc4ccc(F)cc4[C@H]3O2)CC1 [Compound 32] | – | – | –
14 | 11.7 | 38 | 17 | – | – | CCCCOC(=O)N1CCN(C[C@H]2C[C@@H]3c4ccccc4Cc4ccc(F)cc4[C@H]3O2)CC1 [Compound 33] | – | – | –
15 | 0.851 | 5.01 | 2.51 | – | – | CCOCCN1CCN(C[C@H]2C[C@@H]3c4ccccc4Cc4ccc(F)cc4[C@H]3O2)CC1 [Compound 34] | – | – | –
16 | 1.51 | 7.41 | 3.09 | – | – | COCCN1CCN(C[C@H]2C[C@@H]3c4ccccc4Cc4ccc(F)cc4[C@H]3O2)CC1 [Compound 35] | – | – | –
17 | 0.955 | 5.5 | 3.72 | – | – | CC(C)(C)OCCN1CCN(C[C@H]2C[C@@H]3c4ccccc4Cc4ccc(F)cc4[C@H]3O2)CC1 [Compound 36] | – | – | –
18 | 0.692 | 6.92 | 2 | – | – | OCCN1CCN(C[C@H]2C[C@@H]3c4ccccc4Sc4ccc(F)cc4[C@H]3O2)CC1 [Compound 39] | – | – | –
19 | 26.9 | 52.5 | 12.3 | – | – | CC(C)CN1CCN(C[C@H]2C[C@@H]3c4ccccc4Cc4ccc(F)cc4[C@H]3O2)CC1 [Compound 40] | – | – | –
20 | 97.7 | 295 | 95.5 | – | – | Fc1ccc2c(c1)[C@H]1O[C@@H](CN3CCN(CC(c4ccccc4)c4ccccc4)CC3)C[C@@H]1c1ccccc1C2 [Compound 41] | – | – | –
21 | – | – | – | – | – | Fc1ccc2c(c1)[C@H]1O[C@@H](CN3CCN(Cc4ccc(Cl)cc4)CC3)C[C@@H]1c1ccccc1C2 [Compound 42] | 7.31 | 7.11 | 7.55
22 | – | – | – | – | – | Cc1ccccc1CN1CCN(C[C@H]2C[C@@H]3c4ccccc4Cc4ccc(F)cc4[C@H]3O2)CC1 [Compound 43] | 7.39 | 6.98 | 7.35
23 | – | – | – | – | – | Fc1ccc2c(c1)[C@H]1O[C@@H](CN3CCN(Cc4ccccc4)CC3)C[C@@H]1c1ccccc1C2 [Compound 45] | 7.73 | 7.34 | 8.10
24 | 5.13 | 8.51 | 1.12 | – | – | OC(CCN1CCN(C[C@H]2C[C@@H]3c4ccccc4Cc4ccc(F)cc4[C@H]3O2)CC1)c1ccc(F)cc1 (stereo partly drawn) [Compound 46] | – | – | –
25 | – | – | – | – | – | Fc1ccc(CN2CCN(C[C@H]3C[C@@H]4c5ccccc5Cc5ccc(F)cc5[C@H]4O3)CC2)cc1 [Compound 47] | 7.51 | 6.89 | 8.04
26 | – | – | – | – | – | Fc1ccc2c(c1)[C@H]1O[C@@H](CN3CCN(Cc4ccc(C(F)(F)F)cc4)CC3)C[C@@H]1c1ccccc1C2 [Compound 48] | 6.63 | 6.52 | 7.07
27 | – | – | – | – | 110 | OCCN1CCN(CC2CC3c4ccccc4Cc4ccc(F)cc4C3O2)CC1 (stereo not drawn) [Prior art compound 21from WO 99/19317, reference compound] | – | – | –

Reference: US20080214572A1, “Selected Tetracyclic Tetrahydrofuran Derivatives Containing a Cyclic Amine Side Chain” (priority 2005, published 2008)
